Values quoted from earlier work, collected in patent publication US20250213563A1, “SUBSTITUTED PYRIMIDIN-4(3H)-ONES FOR USE IN TREATING CANCER” (NAVIRE PHARMA, INC., priority 2021, published 2025).
Entries after “also recorded” stand apart in the source; their conditions may differ.

Columns and labels:
[1] = cited from earlier work
pERK in tumors = conditions: at ≥20 mg daily; cited from earlier work
DUSP6 mRNA in tumors = conditions: at ≥20 mg daily; cited from earlier work

SMILES	most common AEs ([1]; Human DLTs)	patients in whom AEs lead to dose interruption ([1]; Human DLTs)	Human Half life ([1]; comparator SHP2 inhibitors) [h]	Human PD: pERK inhibition in half of tumors analyzed (pERK in tumors) [% pERKinhibition]	Human DLTs ([1]; comparator SHP2 inhibitors)	Human PD: DUSP6 mRNA inhibition in tumors (DUSP6 mRNA in tumors) [% DUSP6 mRNA]
Cc1nc(N2CCC3(CC2)CO[C@@H](C)[C@H]3N)c(CO)nc1Sc1ccnc(N)c1Cl [RMC-4630]	patients; diarrhea,; also recorded: thrombocytopenia,; also recorded: edema are most	interruption in 50%	28 to 33	>30	–	–
C[C@@H]1OCC2(CCN(c3cnc(Sc4ccnc(N)c4Cl)c(N)n3)CC2)[C@@H]1N [TNO-155]	–	–	35	–	LVEF decrease, liver; also recorded: enzyme elevation,; also recorded: diarrhea	>50
